Reference: ChEMBL document CHEMBL1129399, “N-aryl-3,3,3-trifluoro-2-hydroxy-2-methylpropanamides: KATP potassium channel openers. Modifications on the western region” (J Med Chem, 1996)

How the values were obtained:
Rattus norvegicus [1] = experiment: in vivo activity was evaluated by measuring heart rate(HR) after 1 hour.; type: functional
Rattus norvegicus [2] = experiment: in vivo activity was evaluated by measuring mean arterial pressure(MAP) after 5 hour.; type: functional, Artery
Rattus norvegicus [3] = experiment: in vivo activity was evaluated by measuring heart rate(HR) after 3 hour.; type: functional
Rattus norvegicus [4] = experiment: in vivo activity was evaluated by measuring interval between bladder contractions (IC) after 5 hour.; type: functional
Rattus norvegicus [5] = experiment: in vivo activity was evaluated by measuring interval between bladder contractions (IC) after 1 hour.; type: functional
Rattus norvegicus [6] = experiment: in vivo activity was evaluated by measuring heart rate(HR) after 5 hour.; type: functional
Rattus norvegicus [7] = experiment: in vivo activity was evaluated by measuring mean arterial pressure(MAP) after 3 hour.; type: functional, Artery
Rattus norvegicus [8] = experiment: in vivo activity was evaluated by measuring mean arterial pressure(MAP) after 1 hour.; type: functional, Artery
Rattus norvegicus [9] = experiment: in vivo activity was evaluated by measuring interval between bladder contractions (IC) after 3 hour.; type: functional
Rattus norvegicus [10] = experiment: in vivo activity was evaluated by measuring interval between bladder contractions (IC) after 1 hour.
Rattus norvegicus [11] = experiment: In vivo activity was evaluated by measuring heart rate(HR) after 3 hours; type: functional
Rattus norvegicus [12] = experiment: In vivo activity was evaluated by measuring interval between bladder contractions (IC) after 3 hours; type: functional
Rattus norvegicus [13] = experiment: In vivo activity was evaluated by measuring mean arterial pressure(MAP) after 5 hours; type: functional, Artery
Rattus norvegicus [14] = experiment: In vivo activity was evaluated by measuring interval between bladder contractions (IC) after 5 hours; type: functional
Rattus norvegicus [15] = experiment: In vivo activity was evaluated by measuring heart rate(HR) after 5 hours; type: functional
Rattus norvegicus [16] = experiment: In vivo activity was evaluated by measuring heart rate(HR) after 1 hour; type: functional
Rattus norvegicus [17] = experiment: In vivo activity was evaluated by measuring mean arterial pressure(MAP) after 3 hours; type: functional, Artery
Rattus norvegicus [18] = experiment: In vivo activity was evaluated by measuring mean arterial pressure(MAP) after 1 hour; type: functional, Artery
Rattus norvegicus [19] = experiment: In vivo activity was evaluated by measuring interval between bladder contractions (IC) after 1 hour; type: functional
Rattus norvegicus [20] = experiment: In vivo activity was evaluated by measuring heart rate(HR) after 5 hour.; type: functional
Rattus norvegicus [21] = experiment: In vivo activity was evaluated by measuring mean arterial pressure (MAP) after 1 hour.; type: functional, Artery
Rattus norvegicus [22] = experiment: In vivo activity was evaluated by measuring heart rate(HR) after 1 hour.; type: functional
Rattus norvegicus [23] = experiment: In vivo activity was evaluated by measuring mean arterial pressure(MAP) after 5 hour.; type: functional, Artery
Rattus norvegicus [24] = experiment: In vivo activity was evaluated by measuring interval between bladder contractions (IC) after 5 hour.; type: functional
Rattus norvegicus [25] = experiment: In vivo activity was evaluated by measuring heart rate(HR) after 3 hour.; type: functional
Rattus norvegicus [26] = experiment: In vivo activity was evaluated by measuring interval between bladder contractions (IC) after 1 hour.; type: functional
Rattus norvegicus [27] = experiment: In vivo activity was evaluated by measuring interval between bladder contractions (IC) after 3 hour.; type: functional
Rattus norvegicus [28] = experiment: In vivo activity was evaluated by measuring mean arterial pressure(MAP) after 3 hour.; type: functional, Artery
Rattus norvegicus [29] = experiment: In vivo activity was evaluated by measuring interval between bladder contractions (IC) after 1 hours; type: functional
Rattus norvegicus [30] = experiment: In vivo activity was evaluated by measuring mean arterial pressure(MAP) after 1 hour.; type: functional, Artery

Structure (SMILES)	Delta HR (Rattus norvegicus [1])	Delta MAP (Rattus norvegicus [2])	Delta HR (Rattus norvegicus [3])	Delta IC (Rattus norvegicus [4])	Delta IC (Rattus norvegicus [5])	Delta HR (Rattus norvegicus [6])	Delta MAP (Rattus norvegicus [7])	Delta MAP (Rattus norvegicus [8])	Delta IC (Rattus norvegicus [9])	further results
CC(O)(C(=O)Nc1ccc(S(=O)(=O)c2cccnc2)cc1)C(F)(F)F (stereo unspecified)	19%	-11%	3%	125%	64%	-2%	-14%	-16%	83%	
CN(c1ccccc1)S(=O)(=O)c1ccc(NC(=O)C(C)(O)C(F)(F)F)cc1 (stereo unspecified)	-1%	-4%	4%	56%	30%	1%	-3%	-1%	33%	
Cc1cc(C(=O)c2ccccc2)ccc1NC(=O)C(C)(O)C(F)(F)F (stereo unspecified)	0%	-4%	-1%	71%		1%	-4%	-3%	50%	Delta IC (Rattus norvegicus [10]): 26%
CC(O)(C(=O)Nc1ccc(S(=O)(=O)c2ccccc2)cc1)C(F)(F)F (stereo unspecified)										Delta HR (Rattus norvegicus [11]): 27%; Delta IC (Rattus norvegicus [12]): 79%; Delta MAP (Rattus norvegicus [13]): 23%; Delta IC (Rattus norvegicus [14]): 97%; Delta HR (Rattus norvegicus [15]): -22%; Delta HR (Rattus norvegicus [16]): 32%; Delta MAP (Rattus norvegicus [17]): -24%; Delta MAP (Rattus norvegicus [18]): -25%; Delta IC (Rattus norvegicus [19]): 24%
CC(O)(C(=O)Nc1ccc(C(=O)c2cccc(F)c2)cc1)C(F)(F)F (stereo unspecified)	9%	1%	4%	61%		6%	2%	4%	56%	Delta IC (Rattus norvegicus [10]): 25%
CC(O)(C(=O)Nc1ccc(S(=O)(=O)c2ccncc2)c(O)c1)C(F)(F)F (stereo unspecified)	2%	-4%	2%	95%	25%	6%	1%	1%	42%	
CC(O)(C(=O)Nc1ccc(C(=O)c2ccccc2)cc1)C(F)(F)F (stereo unspecified)										Delta HR (Rattus norvegicus [20]): -4%; Delta MAP (Rattus norvegicus [21]): -1%; Delta HR (Rattus norvegicus [22]): 2%; Delta MAP (Rattus norvegicus [23]): 2%; Delta IC (Rattus norvegicus [24]): 128%; Delta HR (Rattus norvegicus [25]): -3%; Delta IC (Rattus norvegicus [26]): 35%; Delta IC (Rattus norvegicus [27]): 73%; Delta MAP (Rattus norvegicus [28]): 1%
CC(O)(C(=O)Nc1ccc(S(=O)(=O)c2ccncc2)cc1)C(F)(F)F (stereo unspecified)	5%	1%	1%	76%	20%	0%	5%	4%	76%	
CC1(C)Oc2ccc(C#N)cc2[C@@H](N2CCCC2=O)[C@@H]1O [CROMAKALIM]										Delta HR (Rattus norvegicus [22]): 20%; Delta IC (Rattus norvegicus [29]): 54%; Delta MAP (Rattus norvegicus [23]): -12%; Delta HR (Rattus norvegicus [15]): 9%; Delta IC (Rattus norvegicus [24]): 114%; Delta HR (Rattus norvegicus [25]): 13%; Delta IC (Rattus norvegicus [27]): 104%; Delta MAP (Rattus norvegicus [30]): -18%; Delta MAP (Rattus norvegicus [28]): -14%
